In US20250296971A1, “GASTRIC INHIBITORY PEPTIDE RECEPTOR LIGANDS” (priority 2021, published 2025):
Like-named read-outs stand apart in the source and are kept apart here. *1 amine or outer side, *2 acyl side, *3 side chain or, on linkers, in order; H or OH if unused. Where a SMILES comes first, the peptide text is derived from it. Bridges are numbered along the chain shown (N, C = ends). [ ]: non-standard residue; d: D form. The star is where a group is joined. X5 = NC(=O)[C@H](CCCCNC(=O)CN1CCN(CC(=O)O)CCN(CC(=O)O)CCN(CC(=O)O)CC1)NC(=O)CCC(=O)NCCCOCCOCCOCCCN*; NH(1-deoxy-D-glucityl) = OC[C@@H](O)[C@@H](O)[C@H](O)[C@@H](O)CN*; DOTA = O=C(O)CN1CCN(CC(=O)O)CCN(CC(=O)*)CCN(CC(=O)O)CC1; Trp(5-Cl) = N[C@@H](Cc1c[nH]c2ccc(Cl)cc12)C(=O)O; Pyridine(2,6-diCH2) = c1cc(C[*:1])nc(C[*:2])c1; Pro(4R-NH2) = N[C@H]1CN[C@H](C(=O)O)C1; 1Nal = N[C@@H](Cc1cccc2ccccc12)C(=O)O; mXylylene = c1cc(C[*:1])cc(C[*:2])c1; Glutaryl = O=C(CCCC(=O)[*:2])[*:1]; Hyp = O=C(O)[C@@H]1C[C@@H](O)CN1; X1 = O=C(CN1CCC(N[*:1])CC1)[*:2]; Suc = O=C(CCC(=O)[*:2])[*:1]; αMeK = C[C@](N)(CCCCN)C(=O)O; Thp = NC1(C(=O)O)CCOCC1; Aib = CC(C)(N)C(=O)O

Target: T1, GIPR (CHO-K1-hGIPR cells) (Homo sapiens, UniProt P48546)
T1 construct: host or cells: CHO-K1
T1 sequence (P48546 22-466): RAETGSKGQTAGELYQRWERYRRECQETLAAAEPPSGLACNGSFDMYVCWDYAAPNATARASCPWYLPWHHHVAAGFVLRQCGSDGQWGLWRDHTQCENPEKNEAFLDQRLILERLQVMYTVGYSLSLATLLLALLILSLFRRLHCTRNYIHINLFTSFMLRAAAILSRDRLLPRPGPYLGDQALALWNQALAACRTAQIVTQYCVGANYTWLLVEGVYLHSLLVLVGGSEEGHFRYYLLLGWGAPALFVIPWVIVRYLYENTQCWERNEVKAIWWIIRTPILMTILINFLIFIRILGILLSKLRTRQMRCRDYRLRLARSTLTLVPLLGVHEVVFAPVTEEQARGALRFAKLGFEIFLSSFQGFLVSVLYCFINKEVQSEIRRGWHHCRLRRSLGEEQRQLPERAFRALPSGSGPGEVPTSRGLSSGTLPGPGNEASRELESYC
Experiment: FACS binding assay
Settings: for IC50: read-out: pIC50 Category (converted)
Outline: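 CHO-K1 cells stably expressing human GIPR were detached with Accutase, suspended at 500.000 cells per mL in PBS with 1% FCS, and washed ice-cold. Bound peptide was detected with 1 μg/mL APC-streptavidin for 30 min on ice.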

[1] = competition with 20 nM GIP-057, 4° C., 1 hour
[2] = competition with 20 nM GIP-057, 4° C. for 1 hour

Row | IC50 [1] | IC50 [2] | also measured | Compound
1 | < 10 nM | – | – | CC[C@H](C)[C@@H]1NC(=O)[C@H](CC(C)C)NC(=O)C(C)(C)NC(=O)[C@@H](NC(=O)[C@H](CC(C)C)NC(=O)[C@H](CCC(=O)O)NC(=O)[C@@H]2CCCN2C(=O)[C@H](Cc2cccc3ccccc23)NC(=O)[C@H](Cc2c[nH]c3ccccc23)NC(=O)CCC(=O)O)CSCc2cccc(c2)CSC[C@@H](C(=O)NCCCOCCOCCOCCCNC(=O)CCC(=O)N[C@@H](CCCCNC(=O)CN2CCN(CC(=O)O)CCN(CC(=O)O)CCN(CC(=O)O)CC2)C(N)=O)NC1=O [GIP-085, HO-Succinyl-Trp-1Ni-Pro-Glu-Leu-[Cys(3MeBn)-Aib-Leu-Ile-Cys]-Ttds-Lys(DOTA)-NH2] (Suc-W[1Nal]PELC[Aib]LIC-X5; linker 6-10 via mXylylene)
2 | – | < 10 nM | – | CC[C@H](C)[C@@H]1NC(=O)[C@H](CC(C)C)NC(=O)[C@](C)(CCCCNC(=O)CN2CCN(CC(=O)O)CCN(CC(=O)O)CCN(CC(=O)O)CC2)NC(=O)[C@@H](NC(=O)[C@@H](CC(C)C)NC(=O)[C@H](CCC(=O)O)NC(=O)[C@@H]2C[C@@H](N)CN2C(=O)[C@H](Cc2c[nH]c3ccc(Cl)cc23)NC(=O)[C@H](Cc2c[nH]c3ccccc23)NC(=O)[C@H](CC(=O)O)NC(=O)CCCC(=O)NC[C@H](O)[C@@H](O)[C@H](O)[C@H](O)CO)CSCc2cccc(n2)CSC[C@@H](C(=O)NC2CCN(CC(=O)N[C@H](CCC(=O)NC[C@H](O)[C@@H](O)[C@H](O)[C@H](O)CO)C(N)=O)CC2)NC1=O [GIP-371, AGLU-Glutar-Asp-Trp-5Clw-Tap-Glu-leu-[Cys(2Lut)-Amk(DOTA)-Leu-Ile-Cys]-APAc-glu(AGLU)-NH] ({NH(1-deoxy-D-glucityl)-Glutaryl}-DW[Trp(5-Cl)][Pro(4R-NH2)]E[dL]C[αMeK](DOTA)LIC[X1][dE](NH(1-deoxy-D-glucityl))-NH2; linker 7-11 via Pyridine(2,6-diCH2))
3 | – | – | pIC50 Category [1]: B (pIC50 values between 7.1 and 8.0) | HO-Succinyl-Trp-5Clw-Hyp-Glu-leu-[Cys(2Lut)-Apc(MeO2kDaPEGAc)-Leu-Ile-Cys]-APAc-Lys(DOTA)-NH2 [GIP-143]
4 | – | > 1000 nM | – | CC[C@H](C)[C@@H]1NC(=O)[C@H](CC(C)C)NC(=O)[C@H](C)NC(=O)[C@@H](NC(=O)[C@H](CC(C)C)NC(=O)[C@H](CCC(=O)O)NC(=O)[C@@H]2CCCN2C(C)=O)CSCc2cccc(c2)CSC[C@@H](C(N)=O)NC1=O [GIP-326, Ac-Pro-Glu-Leu-[Cys(3MeBn)-Ala-Leu-Ile-Cys]-NH2] (Ac-PELCALIC-NH2; linker 4-8 via mXylylene)
5 | < 10 nM | – | – | CC[C@H](C)[C@@H]1NC(=O)[C@H](Cc2ccccc2)NC(=O)C2(CCOCC2)NC(=O)[C@@H](NC(=O)[C@@H](CC(C)C)NC(=O)[C@H](CCC(=O)O)NC(=O)[C@@H]2C[C@@H](O)CN2C(=O)[C@H](Cc2c[nH]c3ccc(Cl)cc23)NC(=O)[C@H](Cc2c[nH]c3ccccc23)NC(=O)[C@H](CC(=O)O)NC(C)=O)CSCc2cccc(n2)CSC[C@@H](C(N)=O)NC1=O [GIP-232, Ac-Asp-Trp-5Clw-Hyp-Glu-leu-[Cys(2Lut)-Thp-Phe-Ile-Cys]-NH2] (Ac-DW[Trp(5-Cl)][Hyp]E[dL]C[Thp]FIC-NH2; linker 7-11 via Pyridine(2,6-diCH2))
6 | – | > 1000 nM | – | CC[C@H](C)[C@@H]1NC(=O)[C@H](CC(C)C)NC(=O)C2(CCOCC2)NC(=O)[C@@H](NC(=O)[C@@H](CC(C)C)NC(=O)[C@H](CCC(=O)O)NC(=O)[C@@H]2C[C@@H](O)CN2C(=O)[C@H](Cc2ccccc2)NC(=O)[C@H](Cc2c[nH]c3ccccc23)NC(=O)[C@H](CC(=O)O)NC(C)=O)CSCc2cccc(n2)CSC[C@@H](C(N)=O)NC1=O [GIP-352, Ac-Asp-Trp-Phe-Hyp-Glu-leu-[Cys(2Lut)-Thp-Leu-Ile-Cys]-NH2] (Ac-DWF[Hyp]E[dL]C[Thp]LIC-NH2; linker 7-11 via Pyridine(2,6-diCH2))
